Consider 28 molecules from patent US10399974B2, “N2-phenyl-pyrido[3,4-D]pyrimidine-2, 8-diamine derivatives and their use as Mps1 inhibitors” (Cancer Research Technology Limited, priority 2014, dated 2019).

Sequence of full length MPS1 (P33981 whole entry): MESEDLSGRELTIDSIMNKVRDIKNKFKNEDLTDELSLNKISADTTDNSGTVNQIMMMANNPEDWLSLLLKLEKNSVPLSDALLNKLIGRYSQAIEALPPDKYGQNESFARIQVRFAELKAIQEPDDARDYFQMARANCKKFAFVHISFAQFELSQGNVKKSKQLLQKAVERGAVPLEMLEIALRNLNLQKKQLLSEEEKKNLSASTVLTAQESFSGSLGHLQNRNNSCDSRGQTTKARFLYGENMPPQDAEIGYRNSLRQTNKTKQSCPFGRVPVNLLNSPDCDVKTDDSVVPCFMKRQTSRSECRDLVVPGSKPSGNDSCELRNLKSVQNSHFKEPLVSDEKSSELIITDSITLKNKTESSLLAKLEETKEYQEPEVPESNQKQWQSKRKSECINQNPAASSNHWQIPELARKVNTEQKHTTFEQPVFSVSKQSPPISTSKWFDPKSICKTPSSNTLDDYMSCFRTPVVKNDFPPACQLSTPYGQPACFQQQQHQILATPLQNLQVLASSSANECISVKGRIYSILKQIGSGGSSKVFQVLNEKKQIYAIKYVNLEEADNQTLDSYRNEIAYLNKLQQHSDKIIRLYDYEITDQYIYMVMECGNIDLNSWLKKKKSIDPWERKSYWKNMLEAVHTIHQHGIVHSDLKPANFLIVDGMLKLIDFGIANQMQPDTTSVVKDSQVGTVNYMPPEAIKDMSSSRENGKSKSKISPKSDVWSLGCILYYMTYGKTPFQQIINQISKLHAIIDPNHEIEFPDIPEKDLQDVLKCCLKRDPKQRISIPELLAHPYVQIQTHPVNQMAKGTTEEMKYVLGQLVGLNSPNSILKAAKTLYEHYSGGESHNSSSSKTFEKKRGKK

One test addresses full length MPS1 (Homo sapiens (Human), UniProt P33981). Kind of test: Measurement of Inhibition of MPS1 Kinase. It counts as biochemical.
Conditions: not given
The protocol:
Measurement of Inhibition of MPS1 Kinase
(5 μM), ATP (10 μM), either DMSO (1% v/v) or the test compound (in the range 0.25 nM-100 μM in 1% DMSO) and assay buffer (50 mM HEPES (pH 7.0), 0.02% NaN3, 0.01% BSA, 0.1 mM Orthovandate, […], 1 μM DTT, Roche protease inhibitor). The reaction was carried out for 60 min at room temperature and stopped by the addition of buffer (10 μl) containing 20 mM EDTA, 0.05% (v/v) Brij-35, in 0.1M HEPES-buffered saline (Free acid, Sigma, UK). The plate was read on a Caliper EZ reader II (Caliper Life Sciences).
The reader provides a Software package (‘Reviewer’) which converts the peak heights into % conversion by measuring both product and substrate peak and also allows selection of control well which represent 0% and 100% inhibition, respectively. The % inhibition of the compounds is calculated relative to the means of selected control wells. IC50s are determined by testing the compounds at a range of concentrations from 0.25 nM-100 μM. The % inhibitions at each concentration are then fitted to a 4 parameter logistic fit: y=(a+((b−a)/(1+((c/x^d)))) where a=asym min, b=asym max, c=IC50 and d=hill coefficient
The molecule `CCOc1cc(-c2nncn2C)ccc1Nc1ncc2cc(C)nc(N3CC(C)(C)C3)c2n1` [Example 29, 8-(3,3-dimethylazetidin-1-yl)-N-(2-ethoxy-4-(4-methyl-4H-1,2,4-triazol-3-yl)phenyl)-6-methylpyrido[3,4-d]pyrimidin-2-amine] had an IC50 of 2 nM.

Staying with this test, now noted: full length MPS1 12.5 nM or 3 nM, H236 peptide 5 μM, ATP 10 μM, 60 min at room temperature, Caliper EZ reader II; read-out: MPS1 IC50.
As for `CCOc1cc(-c2nncn2C)ccc1Nc1ncc2cc(C)nc(NC3CN(C)C3)c2n1` [Example 58, N2-(2-ethoxy-4-(4-methyl-4H-1,2,4-triazol-3-yl)phenyl)-6-methyl-N8-(1-methylazetidin-3-yl)pyrido[3,4-d]pyrimidine-2,8-diamine], the IC50 was found to be 518 nM.
Turning to `CCOc1cc(-c2nncn2C)ccc1Nc1ncc2cc(C)nc(N3CC(C)(OCC)C3)c2n1` [Example 61, 8-(3-ethoxy-3-methylazetidin-1-yl)-N-(2-ethoxy-4-(4-methyl-4H-1,2,4-triazol-3-yl)phenyl)-6-methylpyrido[3,4-d]pyrimidin-2-amine], the half-inhibitory concentration (IC50) worked out at 4 nM.
As to `COc1cc(-c2cnc(C)n2C)ccc1Nc1ncc2cc(C)nc(N3CC4(CCOCC4)C3)c2n1` [Example 20, N-(4-(1,2-dimethyl-1H-imidazol-5-yl)-2-methoxyphenyl)-6-methyl-8-(7-oxa-2-azaspiro[3.5]nonan-2-yl)pyrido[3,4-d]pyrimidin-2-amine], the IC50 was determined as 12 nM.
The same measure, in the same setting: for `CCOc1cc(-c2nncn2C)ccc1Nc1ncc2cc(C)nc(NCC3(O)CCC3)c2n1` [Example 8, 1-(((2-((2-ethoxy-4-(4-methyl-4H-1,2,4-triazol-3-yl)phenyl)amino)-6-methylpyrido[3,4-d]pyrimidin-8-yl)amino)methyl)cyclobutanol] the value was 3 nM; for `COc1cc(-c2cnnn2C)ccc1Nc1ncc2cc(C)nc(NCC(C)(C)C)c2n1` [Example 1, N2-(2-methoxy-4-(1-methyl-1H-1,2,3-triazol-5-yl)phenyl)-6-methyl-N8-neopentylpyrido[3,4-d]pyrimidine-2,8-diamine], 0.5 nM.
Consider `CCOc1cc(-c2nncn2C)ccc1Nc1ncc2cc(C)nc(N[C@H](C)C(C)(C)C)c2n1` [Example 53, (R)-N8-(3,3-dimethylbutan-2-yl)-N2-(2-ethoxy-4-(4-methyl-4H-1,2,4-triazol-3-yl)phenyl)-6-methylpyrido[3,4-d]pyrimidine-2,8-diamine], for which the IC50 was 5 nM.
The same measure, in the same setting: under `CCOc1cc(-c2nncn2C)ccc1Nc1ncc2cc(C)nc(NCC3(OC)CCC3)c2n1` [Example 59, N2-(2-ethoxy-4-(4-methyl-4H-1,2,4-triazol-3-yl)phenyl)-N8-((1-methoxycyclobutyl)methyl)-6-methylpyrido[3,4-d]pyrimidine-2,8-diamine] stands 4 nM; under `CCOc1cc(-c2nnc(C)n2C)ccc1Nc1ncc2cc(C)nc(NCC(C)(C)C)c2n1` [Example 7, N2-(4-(4,5-dimethyl-4H-1,2,4-triazol-3-yl)-2-ethoxyphenyl)-6-methyl-N8-neopentylpyrido[3,4-d]pyrimidine-2,8-diamine], 4 nM.
For the molecule `CCOc1cc(-c2nncn2C)ccc1Nc1ncc2cc(C)nc(N3CCC3(C)C)c2n1` [Example 42, 8-(2,2-dimethylazetidin-1-yl)-N-(2-ethoxy-4-(4-methyl-4H-1,2,4-triazol-3-yl)phenyl)-6-methylpyrido[3,4-d]pyrimidin-2-amine], the half-maximal inhibitory concentration (IC50) was 10 nM.
With `CCOc1cc(-c2nncn2C)ccc1Nc1ncc2cc(C)nc(N3CC(C)(OC)C3)c2n1` [Example 30, N-(2-ethoxy-4-(4-methyl-4H-1,2,4-triazol-3-yl)phenyl)-8-(3-methoxy-3-methylazetidin-1-yl)-6-methylpyrido[3,4-d]pyrimidin-2-amine], the IC50 turned out to be 2 nM.
Regarding `CCOc1cc(-c2nncn2C)ccc1Nc1ncc2cc(C)nc(N3CC(CC)(OC)C3)c2n1` [Example 60, N-(2-ethoxy-4-(4-methyl-4H-1,2,4-triazol-3-yl)phenyl)-8-(3-ethyl-3-methoxyazetidin-1-yl)-6-methylpyrido[3,4-d]pyrimidin-2-amine], the IC50 was determined as 3 nM.
As to `CCOc1cc(-c2nnc(C)n2C)ccc1Nc1ncc2cc(C)nc(N3CC(C)(C)C3)c2n1` [Example 22, N-(4-(4,5-dimethyl-4H-1,2,4-triazol-3-yl)-2-ethoxyphenyl)-8-(3,3-dimethylazetidin-1-yl)-6-methylpyrido[3,4-d]pyrimidin-2-amine], the IC50 stood at 20 nM.
For `COc1cc(-c2cnc(C)n2C)ccc1Nc1ncc2cc(C)nc(N3CCC(C#N)CC3)c2n1` [Example 34, 1-(2-((4-(1,2-dimethyl-1H-imidazol-5-yl)-2-methoxyphenyl)amino)-6-methylpyrido[3,4-d]pyrimidin-8-yl)piperidine-4-carbonitrile], the IC50 turned out to be 3 nM.
The same measure, in the same setting: for `CCOc1cc(-c2nncn2CC)ccc1Nc1ncc2cc(C)nc(NCC(C)(C)C)c2n1` [Example 26, N2-(2-ethoxy-4-(4-ethyl-4H-1,2,4-triazol-3-yl)phenyl)-6-methyl-N8-neopentylpyrido[3,4-d]pyrimidine-2,8-diamine] the value was 6 nM; for `CCOc1cc(-c2nncn2CC)ccc1Nc1ncc2cc(C)nc(N3CC4(CCOCC4)C3)c2n1` [Example 24, N-(2-ethoxy-4-(4-ethyl-4H-1,2,4-triazol-3-yl)phenyl)-6-methyl-8-(7-oxa-2-azaspiro[3.5]nonan-2-yl)pyrido[3,4-d]pyrimidin-2-amine], 2 nM.
`CCOc1cc(-c2nncn2C)ccc1Nc1ncc2cc(C)nc(NCC3(O)CC3)c2n1` [Example 31, 1-(((2-((2-ethoxy-4-(4-methyl-4H-1,2,4-triazol-3-yl)phenyl)amino)-6-methylpyrido[3,4-d]pyrimidin-8-yl)amino)methyl)cyclopropanol]: the IC50 worked out at 8 nM.
On to `CCOc1cc(-c2nncn2C)ccc1Nc1ncc2cc(C)nc(NCC3(C)CCOC3)c2n1` (stereo not shown) [Example 2, N2-(2-ethoxy-4-(4-methyl-4H-1,2,4-triazol-3-yl)phenyl)-6-methyl-N8-((3-methyltetrahydrofuran-3-yl)methyl)pyrido[3,4-d]pyrimidine-2,8-diamine], for which the IC50 was 2 nM.
Same read-out and setting: for `CCOc1cc(-c2nncn2C)ccc1Nc1ncc2cc(C)nc(N3CCC(C)(C#N)CC3)c2n1` [Example 28, 1-(2-((2-ethoxy-4-(4-methyl-4H-1,2,4-triazol-3-yl)phenyl)amino)-6-methylpyrido[3,4-d]pyrimidin-8-yl)-4-methylpiperidine-4-carbonitrile] the value was 2 nM; for `COc1cc(-c2oc(C)nc2C)ccc1Nc1ncc2cc(C)nc(NCC(C)(C)C)c2n1` [Example 17, N2-(4-(2,4-dimethyloxazol-5-yl)-2-methoxyphenyl)-6-methyl-N8-neopentylpyrido[3,4-d]pyrimidine-2,8-diamine], 43 nM; for `COc1cc(-c2ncco2)ccc1Nc1ncc2cc(C)nc(NCC(C)(C)C)c2n1` [Example 14, N2-(2-methoxy-4-(oxazol-2-yl)phenyl)-6-methyl-N8-neopentylpyrido[3,4-d]pyrimidine-2,8-diamine], 59 nM.
`CCOc1cc(-c2nncn2C)ccc1Nc1ncc2cc(C)nc(NCC3COC3)c2n1` [Example 57, N2-(2-ethoxy-4-(4-methyl-4H-1,2,4-triazol-3-yl)phenyl)-6-methyl-N8-(oxetan-3-ylmethyl)pyrido[3,4-d]pyrimidine-2,8-diamine]: the IC50 stood at 3 nM.
As for `CCOc1cc(-c2nncn2C)ccc1Nc1ncc2cc(C)nc(N3CC(C(F)(F)F)C3)c2n1` [Example 40, N-(2-ethoxy-4-(4-methyl-4H-1,2,4-triazol-3-yl)phenyl)-6-methyl-8-(3-(trifluoromethyl)azetidin-1-yl)pyrido[3,4-d]pyrimidin-2-amine], the IC50 stood at 5 nM.
For the molecule `CCOc1cc(-c2nncn2CC)ccc1Nc1ncc2cc(C)nc(N3CC(C)(C)C3)c2n1` [Example 25, 8-(3,3-dimethylazetidin-1-yl)-N-(2-ethoxy-4-(4-ethyl-4H-1,2,4-triazol-3-yl)phenyl)-6-methylpyrido[3,4-d]pyrimidin-2-amine], the IC50 came out at 6 nM.
On to `CCOc1cc(-c2nncn2C)ccc1Nc1ncc2cc(C)nc(N3CC4(CCC4)C3)c2n1` [Example 55, N-(2-ethoxy-4-(4-methyl-4H-1,2,4-triazol-3-yl)phenyl)-6-methyl-8-(2-azaspiro[3.3]heptan-2-yl)pyrido[3,4-d]pyrimidin-2-amine], for which the IC50 came to 4 nM.
As for `CCOc1cc(-c2nncn2C)ccc1Nc1ncc2cc(C)nc(N3CCCC3)c2n1` [Example 56, N-(2-ethoxy-4-(4-methyl-4H-1,2,4-triazol-3-yl)phenyl)-6-methyl-8-(pyrrolidin-1-yl)pyrido[3,4-d]pyrimidin-2-amine], the IC50 was 6 nM.
As for `CCOc1cc(-c2nncn2C)ccc1Nc1ncc2cc(C)nc(N3CCC(C#N)CC3)c2n1` [Example 5, 1-(2-((2-ethoxy-4-(4-methyl-4H-1,2,4-triazol-3-yl)phenyl)amino)-6-methylpyrido[3,4-d]pyrimidin-8-yl)piperidine-4-carbonitrile], the IC50 turned out to be 3 nM.
On to `CCOc1cc(-c2nncn2C)ccc1Nc1ncc2cc(C)nc(N3CCC(O)CC3)c2n1` [Example 52, 1-(2-(2-ethoxy-4-(4-methyl-4H-1,2,4-triazol-3-yl)phenylamino)-6-methylpyrido[3,4-d]pyrimidin-8-yl)piperidin-4-ol], for which the IC50 is 2 nM.
